From ChEMBL document CHEMBL1144430, “Convergent synthesis and pharmacology of substituted tetrazolyl-2-amino-3-(3-hydroxy-5-methyl-4-isoxazolyl)propionic acid analogues” (J Med Chem, 2005) come the findings set out here.

Test [1] can be described thus: In vitro activity at Ionotropic glutamate receptor using cortical wedge assays.
The target of test [2] is Glutamate receptor 2 (Homo sapiens, UniProt P42262). The test is described as follows: Binding affinity for ionotropic Glutamate receptor AMPA 2 expressed in Sf9 cells.
Sequence of Glutamate receptor 2 (P42262 whole entry): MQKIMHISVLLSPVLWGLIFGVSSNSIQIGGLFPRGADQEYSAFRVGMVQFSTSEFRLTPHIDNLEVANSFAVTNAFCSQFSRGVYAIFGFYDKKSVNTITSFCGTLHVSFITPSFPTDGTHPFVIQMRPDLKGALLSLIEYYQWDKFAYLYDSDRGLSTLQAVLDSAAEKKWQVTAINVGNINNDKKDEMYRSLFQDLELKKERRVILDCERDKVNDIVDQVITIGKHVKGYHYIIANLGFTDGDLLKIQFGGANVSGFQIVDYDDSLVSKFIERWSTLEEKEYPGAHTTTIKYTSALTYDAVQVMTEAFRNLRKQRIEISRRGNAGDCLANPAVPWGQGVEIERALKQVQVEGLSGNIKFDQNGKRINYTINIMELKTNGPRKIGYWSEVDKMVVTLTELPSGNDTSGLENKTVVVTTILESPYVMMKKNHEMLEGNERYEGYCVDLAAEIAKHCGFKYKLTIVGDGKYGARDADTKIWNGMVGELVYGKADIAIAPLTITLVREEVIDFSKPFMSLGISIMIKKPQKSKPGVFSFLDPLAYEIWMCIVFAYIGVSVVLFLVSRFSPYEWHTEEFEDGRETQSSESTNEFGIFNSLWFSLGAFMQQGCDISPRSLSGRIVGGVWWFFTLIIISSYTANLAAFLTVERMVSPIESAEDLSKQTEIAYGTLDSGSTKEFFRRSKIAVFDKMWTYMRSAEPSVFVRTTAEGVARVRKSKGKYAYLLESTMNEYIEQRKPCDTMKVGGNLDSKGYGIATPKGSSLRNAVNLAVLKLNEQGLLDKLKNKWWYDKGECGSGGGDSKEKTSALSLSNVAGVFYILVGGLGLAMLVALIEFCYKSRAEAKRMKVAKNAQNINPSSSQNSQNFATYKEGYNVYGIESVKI
In test [3] the target is Glutamate receptor 4 (Homo sapiens, UniProt P48058). The test is described as follows: Binding affinity for ionotropic Glutamate receptor AMPA 4 expressed in Sf9 cells.
Sequence of Glutamate receptor 4 (P48058 whole entry): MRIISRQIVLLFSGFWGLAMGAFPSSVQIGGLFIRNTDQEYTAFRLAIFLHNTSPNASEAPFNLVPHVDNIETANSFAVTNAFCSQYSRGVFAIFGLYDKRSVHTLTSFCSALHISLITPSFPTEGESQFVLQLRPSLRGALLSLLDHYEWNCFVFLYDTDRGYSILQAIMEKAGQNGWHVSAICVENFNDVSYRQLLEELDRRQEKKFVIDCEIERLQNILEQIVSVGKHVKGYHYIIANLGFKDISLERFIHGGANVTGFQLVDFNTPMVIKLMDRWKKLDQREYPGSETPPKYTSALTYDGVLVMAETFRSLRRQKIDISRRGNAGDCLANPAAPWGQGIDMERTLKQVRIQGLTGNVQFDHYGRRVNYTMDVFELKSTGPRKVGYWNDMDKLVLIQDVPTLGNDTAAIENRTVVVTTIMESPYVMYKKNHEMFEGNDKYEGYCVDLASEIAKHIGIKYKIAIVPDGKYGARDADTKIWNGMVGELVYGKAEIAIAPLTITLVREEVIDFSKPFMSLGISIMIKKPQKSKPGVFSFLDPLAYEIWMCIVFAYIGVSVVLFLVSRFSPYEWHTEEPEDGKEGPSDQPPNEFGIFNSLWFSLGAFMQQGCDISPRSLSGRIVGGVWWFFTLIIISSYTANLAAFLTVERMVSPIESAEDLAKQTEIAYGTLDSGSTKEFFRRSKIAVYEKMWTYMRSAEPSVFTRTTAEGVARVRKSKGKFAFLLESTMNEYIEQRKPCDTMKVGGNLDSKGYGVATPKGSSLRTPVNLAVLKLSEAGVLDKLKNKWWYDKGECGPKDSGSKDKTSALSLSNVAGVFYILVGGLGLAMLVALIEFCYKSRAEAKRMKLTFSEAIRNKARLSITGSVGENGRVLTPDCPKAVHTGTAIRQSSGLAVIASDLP
The target of test [4] is Glutamate receptor 1 (Homo sapiens, UniProt P42261). The experiment in a line: Binding affinity for ionotropic Glutamate receptor AMPA 1 expressed in Sf9 cells.
Sequence of Glutamate receptor 1 (P42261 whole entry): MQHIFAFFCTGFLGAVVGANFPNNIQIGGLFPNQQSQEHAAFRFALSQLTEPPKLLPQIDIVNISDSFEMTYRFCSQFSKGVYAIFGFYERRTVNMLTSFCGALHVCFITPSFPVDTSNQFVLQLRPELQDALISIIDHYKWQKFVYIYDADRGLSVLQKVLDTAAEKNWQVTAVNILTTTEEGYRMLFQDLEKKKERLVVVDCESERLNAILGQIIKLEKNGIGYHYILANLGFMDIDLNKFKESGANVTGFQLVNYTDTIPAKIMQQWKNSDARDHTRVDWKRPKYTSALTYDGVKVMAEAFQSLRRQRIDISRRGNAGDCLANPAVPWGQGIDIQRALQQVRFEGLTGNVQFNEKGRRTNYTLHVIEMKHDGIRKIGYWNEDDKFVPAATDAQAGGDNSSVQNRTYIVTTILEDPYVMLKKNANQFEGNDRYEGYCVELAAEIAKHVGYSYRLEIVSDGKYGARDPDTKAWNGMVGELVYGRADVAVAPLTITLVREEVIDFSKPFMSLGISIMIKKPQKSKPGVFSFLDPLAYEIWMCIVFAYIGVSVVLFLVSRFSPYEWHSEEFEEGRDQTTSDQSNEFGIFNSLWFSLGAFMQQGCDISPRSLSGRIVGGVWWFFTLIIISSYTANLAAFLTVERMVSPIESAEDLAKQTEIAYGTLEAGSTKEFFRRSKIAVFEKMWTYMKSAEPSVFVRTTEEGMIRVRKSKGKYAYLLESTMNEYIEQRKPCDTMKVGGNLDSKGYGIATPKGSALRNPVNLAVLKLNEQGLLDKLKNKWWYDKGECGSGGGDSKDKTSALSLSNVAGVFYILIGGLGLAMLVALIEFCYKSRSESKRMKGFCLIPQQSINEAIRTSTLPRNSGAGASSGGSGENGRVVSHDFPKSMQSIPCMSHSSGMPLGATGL
Test [5] deals with Glutamate receptor ionotropic, kainate 2 (Homo sapiens, UniProt Q13002). The test is described as follows: Binding affinity for kainate Glutamate receptor GluR6 expressed in Sf9 cells.
Sequence of Glutamate receptor ionotropic, kainate 2 (Q13002 whole entry): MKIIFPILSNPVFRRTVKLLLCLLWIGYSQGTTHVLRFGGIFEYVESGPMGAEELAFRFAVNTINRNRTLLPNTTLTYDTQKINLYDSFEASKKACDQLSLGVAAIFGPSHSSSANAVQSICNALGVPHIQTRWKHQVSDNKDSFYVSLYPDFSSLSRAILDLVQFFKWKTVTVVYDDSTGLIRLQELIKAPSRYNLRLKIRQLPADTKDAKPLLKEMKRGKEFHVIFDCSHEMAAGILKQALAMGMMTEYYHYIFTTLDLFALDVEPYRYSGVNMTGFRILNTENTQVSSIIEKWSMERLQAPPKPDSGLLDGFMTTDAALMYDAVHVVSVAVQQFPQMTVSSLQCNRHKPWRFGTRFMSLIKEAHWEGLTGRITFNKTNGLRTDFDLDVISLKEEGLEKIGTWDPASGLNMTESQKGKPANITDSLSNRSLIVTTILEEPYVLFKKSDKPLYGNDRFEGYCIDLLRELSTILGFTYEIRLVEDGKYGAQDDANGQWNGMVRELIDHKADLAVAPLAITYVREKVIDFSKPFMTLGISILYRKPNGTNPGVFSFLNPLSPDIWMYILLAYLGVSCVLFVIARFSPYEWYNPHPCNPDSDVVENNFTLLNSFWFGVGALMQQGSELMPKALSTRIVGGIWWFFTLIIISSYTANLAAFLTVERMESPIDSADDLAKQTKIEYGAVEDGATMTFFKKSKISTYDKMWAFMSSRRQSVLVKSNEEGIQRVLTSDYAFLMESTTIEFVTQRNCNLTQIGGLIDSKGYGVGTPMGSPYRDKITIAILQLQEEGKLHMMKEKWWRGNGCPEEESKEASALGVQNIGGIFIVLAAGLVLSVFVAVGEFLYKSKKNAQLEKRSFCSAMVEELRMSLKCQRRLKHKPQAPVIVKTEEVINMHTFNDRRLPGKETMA
In test [6] the target is Glutamate NMDA receptor. The experiment in a line: Displacement of [3H]-CGP- 39653 from N-methyl-D-aspartate glutamate receptor of rat brain synaptosomes. The test is classed as subcellular. (Loss of bound radioactivity is the signal in a displacement assay; it reports binding, not function.)
Test [7] concerns the target Glutamate receptor ionotropic, kainate. The experiment in a line: Displacement of [3H]KA from glutamate receptor of rat brain synaptosomes. The test is classed as subcellular.
Test [8] has as its target Glutamate receptor ionotropic, kainate 1 (Homo sapiens, UniProt P39086). The experiment in a line: Binding affinity for kainate Glutamate receptor GluR5 expressed in Sf9 cells.
The target of test [9] is Glutamate receptor ionotropic, AMPA (Rattus norvegicus, UniProt P19490+P19491+P19492+P19493). The experiment in a line: Displacement of [3H]AMPA from Ionotropic glutamate receptor of in rat brain synaptosomes. Type of test: subcellular.
Test [10] addresses Glutamate receptor 3 (Homo sapiens, UniProt P42263). The test is described as follows: Binding affinity for ionotropic Glutamate receptor AMPA 3 expressed in Sf9 cells.

Sequence of Glutamate receptor 3 (P42263 whole entry): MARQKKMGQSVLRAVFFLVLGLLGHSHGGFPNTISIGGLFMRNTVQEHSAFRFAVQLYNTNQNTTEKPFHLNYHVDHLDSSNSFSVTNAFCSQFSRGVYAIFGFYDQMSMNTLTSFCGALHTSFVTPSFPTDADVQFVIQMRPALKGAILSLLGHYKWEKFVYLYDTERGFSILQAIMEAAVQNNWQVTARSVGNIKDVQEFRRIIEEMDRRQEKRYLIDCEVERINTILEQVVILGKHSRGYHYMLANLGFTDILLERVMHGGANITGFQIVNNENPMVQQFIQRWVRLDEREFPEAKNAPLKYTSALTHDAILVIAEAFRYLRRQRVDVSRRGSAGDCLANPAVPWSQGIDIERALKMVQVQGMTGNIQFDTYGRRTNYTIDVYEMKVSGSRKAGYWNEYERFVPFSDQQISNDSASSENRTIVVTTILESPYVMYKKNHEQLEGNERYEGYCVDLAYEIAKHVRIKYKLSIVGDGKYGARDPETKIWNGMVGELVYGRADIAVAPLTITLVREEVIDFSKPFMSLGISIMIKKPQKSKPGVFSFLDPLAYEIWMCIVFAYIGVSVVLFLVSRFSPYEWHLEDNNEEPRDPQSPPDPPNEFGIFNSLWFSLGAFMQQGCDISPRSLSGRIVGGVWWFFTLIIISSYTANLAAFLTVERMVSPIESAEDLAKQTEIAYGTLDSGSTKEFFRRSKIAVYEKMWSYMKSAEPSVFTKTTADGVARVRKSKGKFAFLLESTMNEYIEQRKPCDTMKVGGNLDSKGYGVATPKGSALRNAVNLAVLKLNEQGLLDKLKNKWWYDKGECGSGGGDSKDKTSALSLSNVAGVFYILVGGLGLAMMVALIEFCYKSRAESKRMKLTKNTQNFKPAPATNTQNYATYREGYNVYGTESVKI

A word on the EC50: it is the concentration giving half of the maximal effect. High values mean a need for much substance, low ones an effect from little substance. A word on the Ki: it is the dissociation constant of the complex between target and ligand, obtained from inhibition or displacement. For orientation: IC50 means the point on the concentration scale where inhibition reaches its midpoint. A lower IC50 goes with inhibition by little substance. `CC(C)n1nnc(-c2onc(O)c2CC(N)C(=O)O)n1` (centres undefined): it took 71 µM to reach a half-maximal effect in test [1] (EC50). For the same molecule, the Ki in [2] was 2.93 µM; in test [3], 2.35 µM; in [4], 10 µM; in test [5], greater than 100 µM; in test [6], greater than 100 µM; in test [8], 34.2 µM. Besides, the affinity in test [10], expressed as Ki, was 3.71 µM. The 50% inhibitory concentration (IC50) was greater than 100 µM in test [7] and 6.2 µM in [9].

`CCn1nnnc1-c1onc(O)c1CC(N)C(=O)O` (centres undefined): in test [6], the Ki is greater than 100 µM. Further, the IC50 in [7] is greater than 100 µM; in test [9] it was 27 µM.

In test [1], `Cn1nnnc1-c1onc(O)c1CC(N)C(=O)O` (centres undefined) displayed an EC50 greater than 1000 µM. This molecule also yielded a Ki in test [6] greater than 100 µM. The results for the IC50 in [7] and in [9] were greater than 100 µM and 54 µM, respectively.

As to `CC(C)n1nnnc1-c1onc(O)c1CC(N)C(=O)O` (centres undefined), in [6], the Ki is greater than 100 µM. For the same molecule, the IC50 in test [7] and in [9] was greater than 100 µM each time.

As for `Cn1nnc(-c2o[nH]c(=O)c2C[C@H](N)C(=O)O)n1`, the Ki in test [5] is 18.8 µM; in [6], greater than 1000 µM; in test [8], 0.081 µM. The IC50 in test [9] amounted to 0.009 µM.

Consider `CCn1nnc(-c2o[nH]c(=O)c2CC(N)C(=O)O)n1` (centres undefined), for which a half-maximal response in test [1] (EC50) required 3.5 µM. The Ki is 0.0802 µM in [2]; 0.0444 µM in test [3]; 0.145 µM in [4]; greater than 100 µM in [5]; greater than 100 µM in [6]; 2.92 µM in [8]. In [10], this molecule had a Ki of 0.0448 µM. Moreover, the IC50 in test [7] is greater than 100 µM; in [9] it was 0.134 µM.

In the case of `CCCn1nnnc1-c1onc(O)c1CC(N)C(=O)O` (centres undefined), the Ki in test [6] is greater than 100 µM. The IC50 in test [7] and in test [9] was greater than 100 µM in each case.

The molecule `CCCn1nnc(-c2onc(O)c2CC(N)C(=O)O)n1` (centres undefined) showed an EC50 in test [1] of 32 µM. Further, the Ki is 1.61 µM in test [2]; 0.732 µM in [3]; 5.15 µM in test [4]; greater than 100 µM in [5]; greater than 100 µM in test [6]; 5.45 µM in test [8]. In test [10], the affinity, expressed as Ki, was 1.18 µM. In addition, the results for the IC50 in test [7] and in test [9] were greater than 100 µM and 2.5 µM, respectively.

Take `Cn1nnc(-c2onc(O)c2CC(N)C(=O)O)n1` (racemic): the Ki in [6] is greater than 100 µM. The IC50 in [9] is 0.027 µM.
